Values quoted from earlier work in patent US20210030671A1, “LIQUID DOSAGE FORMS OF CINACALCET OR SALT THEREOF” (FTF PHARMA PRIVATE LIMITED, priority 2018, published 2021).
Counter-ions that a name gives are not always drawn. Like-named read-outs stand apart in the source and are kept apart here.

SMILES	solubility (in methanol or 95% ethanol)	solubility (in water)
C[C@@H](NCCCc1cccc(C(F)(F)F)c1)c1cccc2ccccc12 [Cinacalcet hydrochloride]	soluble	slightly soluble
C[C@@H](NCCCc1cccc(C(F)(F)F)c1)c1cccc2ccccc12 [Cinacalcet, N-[1-(R)-(−)-(1-naphthyl)ethyl]-3-[3-(trifluoromethyl)phenyl]-1-aminopropane]	–	< 1 µg/mL
